# Data taken from PubChem BioAssay AID1755 (Sanford-Burnham Center for Chemical Genomics, 2009).
# Where “and” joins values, the source holds several entries; their conditions need not be identical. Identical values can stand only once. Calls of active or inactive are those of the source. How the calls were made is not given here.
# Tested on: MDA-MB-435 TRAIL-induced apoptosis potentiation, viability
# Experiment: MDA-MB-435 TRAIL sensitizers, potency – cell-based, analog series, SAR follow-up (AID 1755)
row,SMILES,IC50
1,COc1cc(-c2ccccc2)[nH]c(=S)n1,> 10 µM (inactive)
2,CC(Sc1nc(-c2ccccc2)cc(C(F)(F)F)n1)C(=O)N1CCCC1 (stereo not drawn),> 10 µM (inactive)
3,CSc1nc(-c2ccccc2)nc(-c2ccccc2)n1,> 10 µM (inactive)
4,CCSc1cc(N2CCCC2)nc(-c2ccc(Cl)cc2)n1,> 10 µM (inactive)
5,CSc1nc(-c2ccccc2)nc(C(C)C)n1,> 10 µM (inactive)
6,CSc1nc(-c2ccc(C)cc2)nc(C(Cl)Cl)n1,4.81 µM and 3.27 µM
7,CSc1nc(-c2ccccc2)nc(-c2ccccc2OC(C)=O)n1,> 10 µM (inactive)
8,CCSc1nc(-c2ccccc2)cc(=O)[nH]1,> 10 µM (inactive)
